Where “and” joins values, the source holds several entries; their conditions need not be identical. Equal values may be shown once. Read-outs that look alike come from different tables or passages of the source.
How the values were obtained:
[1] = target: T1, PDE4D2 (Homo sapiens, UniProt Q08499); assay: In vitro PDE assay; type: biochemical
T1 construct: purchased BPS Biosciences (San Diego, Calif.)
How it was run: (§1)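 Fluorescence polarization readout: FAM-AMP formed from 100 nM FAM-cAMP binds nano-bead agent (60 min) and is read at ex 485/em 528 nm. Enzyme reactions ran 60 min at room temperature in duplicate, Tris-HCl pH 7.4 buffer with 10 mM MgCl2 and 0.05% Tween 20, compound in 1% final DMSO.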

[2] = target: T2, PDE4D3 (Homo sapiens, UniProt Q08499); assay: In vitro PDE assay; type: biochemical
T2 construct: purchased BPS Biosciences (San Diego, Calif.); kinetic studies by Millipore (St. Louis, Mo.)
T2 sequence (Q08499 1-673 isoform Q08499-2): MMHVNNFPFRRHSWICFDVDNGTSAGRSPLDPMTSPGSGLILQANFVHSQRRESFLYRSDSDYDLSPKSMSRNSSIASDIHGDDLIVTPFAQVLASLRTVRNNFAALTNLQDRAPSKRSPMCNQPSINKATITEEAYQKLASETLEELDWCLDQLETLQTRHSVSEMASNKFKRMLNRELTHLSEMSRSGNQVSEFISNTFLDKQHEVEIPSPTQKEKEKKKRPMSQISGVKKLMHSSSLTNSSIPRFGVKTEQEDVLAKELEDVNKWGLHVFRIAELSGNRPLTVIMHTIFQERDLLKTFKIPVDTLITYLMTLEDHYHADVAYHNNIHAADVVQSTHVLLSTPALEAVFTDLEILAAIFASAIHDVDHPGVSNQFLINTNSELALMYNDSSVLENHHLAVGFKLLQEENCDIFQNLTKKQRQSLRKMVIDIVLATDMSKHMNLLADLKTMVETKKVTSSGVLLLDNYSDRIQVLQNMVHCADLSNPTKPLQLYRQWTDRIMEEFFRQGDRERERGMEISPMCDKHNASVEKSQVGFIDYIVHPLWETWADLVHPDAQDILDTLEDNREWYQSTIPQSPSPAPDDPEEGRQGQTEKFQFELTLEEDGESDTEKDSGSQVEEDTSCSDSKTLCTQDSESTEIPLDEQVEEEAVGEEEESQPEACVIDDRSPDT
How it was run: as §1

[3] = test system: Hedgehog signaling (Gli-Luc reporter); assay: Hh Gli-Luciferase reporter assay in Shh-Light2 cells; type: cell-based, mouse; settings: Mus musculus, Shh Light2; for EC50: read-out: Shh Light2 Luc EC50
How it was run: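 Steady-Glo luminescence, corrected for cell titer by CellTiter-Glo, was measured after overnight exposure to compound concentrations. Signaling in Gli-Luc Shh-Light2 cells came either from Shh-conditioned medium, 3 μM purmorphamine or 20 nM SAG, or from transfected Gli-2, PDE4D3 or DN-PDE4D3 constructs.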

[4] = test system: PC3; assay: Cell viability assay (CellTiter-Blue, 72 hr); type: cell-based; settings: PC-3; human cancer cells; read-out: CELL KILLING EC50 (μM) Prostate PCx3
Experimental: (§2) Cancer cell lines were seeded in 96 well tissue culture plate at a low density (10,000 cells per well) and treated with varying concentrations of Eggmanone. After 72 hr incubation, CellTiter-Blue Cell Viability Assay (Promega, Madison, Wis.) was then performed according to manufacturer's protocol. Absorbance was then measured in a Modulus Microplate reader (Promega, Madison, Wis.) at 590 nm and compared to cells treated with DMSO.

[5] = test system: H82; assay: Cell killing EC50 in H82 lung cancer cells (Table 10); type: cell-based; settings: human cancer cells
Experimental: It is anticipated that compounds disclosed herein could serve as an anti-tumor, anti-angiogenic, anti-metastatic, agent in the treatment of cancer. To this end, a series of clinically relevant cancer lines were assayed and the cell-killing EC50s for compounds according to the subject matter disclosed herein are provided in Table 10.

[6] = test system: MCF7; assay: Cell viability assay (CellTiter-Blue, 72 hr); type: cell-based; settings: human cancer cells; for EC50: MCF7, read-out: CELL KILLING EC50 (μM) Breast MCF7
Experimental: as §2
as §2, with “density” for “density (10,000 cells per well)”, “compounds identified in Table 7.” for “Eggmanone.”

[7] = test system: DaoY; assay: Cell viability assay (CellTiter-Blue, 72 hr); type: cell-based, Human; settings: Daoy; human cancer cells; read-out: CELL KILLING EC50 (μM) Medulloblastoma DaoY
Experimental: as §2
as §2, with “density” for “density (10,000 cells per well)”, “compounds identified in Table 7.” for “Eggmanone.”

[8] = test system: SW480; assay: Cell viability assay (CellTiter-Blue, 72 hr); type: cell-based, Human
Experimental: as §2
as §2, with “density” for “density (10,000 cells per well)”, “compounds identified in Table 7.” for “Eggmanone.”

[9] = test system: HCT116; assay: Cell viability assay (CellTiter-Blue, 72 hr); type: cell-based, Human; settings: HCT-116; human cancer cells; read-out: CELL KILLING EC50 (μM) Colon HTC116
Experimental: as §2
as §2, with “density” for “density (10,000 cells per well)”, “compounds identified in Table 7.” for “Eggmanone.”

[10] = test system: RKO; assay: Cell viability assay (CellTiter-Blue, 72 hr); type: cell-based, Human; settings: for EC50: RKO
Experimental: as §2
as §2, with “density” for “density (10,000 cells per well)”, “compounds identified in Table 7.” for “Eggmanone.”

[11] = test system: HeLa; assay: Cell viability assay (CellTiter-Blue, 72 hr); type: cell-based, Human; settings: human cancer cells, read-out: CELL KILLING EC50 (μM) Cervix HeLa
Experimental: as §2
as §2, with “density” for “density (10,000 cells per well)”, “compounds identified in Table 7.” for “Eggmanone.”

[12] = test system: MDA-MB- 231; assay: Cell viability assay (CellTiter-Blue, 72 hr); type: cell-based, Human; settings: MDA-MB-231; human cancer cells; read-out: CELL KILLING EC50 (μM) Breast MDA-231
Experimental: as §2
as §2, with “density” for “density (10,000 cells per well)”, “compounds identified in Table 7.” for “Eggmanone.”

[13] = test system: DU145; assay: Cell viability assay (CellTiter-Blue, 72 hr); type: cell-based, Human; settings: DU-145; human cancer cells; read-out: CELL KILLING EC50 (μM) Prostate DU145
Experimental: as §2
as §2, with “density” for “density (10,000 cells per well)”, “compounds identified in Table 7.” for “Eggmanone.”

[14] = test system: RWGT2; assay: Cell viability assay (CellTiter-Blue, 72 hr); type: cell-based, Human; settings: human cancer cells; read-out: CELL KILLING EC50 (μM) Lung Squam, NSCLC RWGT2
Experimental: as §2
as §2, with “density” for “density (10,000 cells per well)”, “compounds identified in Table 7.” for “Eggmanone.”

[15] = test system: B16F11; assay: Cell viability assay (CellTiter-Blue, 72 hr); type: cell-based, Mouse; settings: Mus musculus, B16-F10; Table 10; read-out: CELL KILLING EC50 (μM) Melanoma B16F10
Experimental: as §2
as §2, with “density” for “density (10,000 cells per well)”, “compounds identified in Table 7.” for “Eggmanone.”

[16] = target: PDE4D (Homo sapiens, UniProt Q08499); assay: PDE4 inhibition assay (PDE4D IC50); type: biochemical; settings: read-out: PDE4D IC50
Sequence of PDE4D (Q08499 1-673 isoform Q08499-2): as above
Experimental: In vitro PDE profiling and dose-response assays were performed by BPS Biosciences (San Diego, Calif.). Kinetic Mechanism of inhibition studies were conducted by Millipore (St. Louis, Mo.). In brief, the PDE assay measures fluorescent polarization of FAM-AMP as FAM-cAMP is converted to FAM-AMP by PDE), the binding agent.
A series of dilutions of the test compound were prepared with 10% DMSO in assay buffer and 5 μl of the dilution was added to a 50 μl reaction so that the final concentration of DMSO is 1% in all of reactions. All of the PDE enzymatic reactions were conducted in duplicate at room temperature for 60 minutes in a 50 μl mixture containing PDE assay buffer (10 mM Tris-HCl, pH7.4, 10 mM MaCl2, 0.05% Tween 20), 100 nM FAM-cAMP, a PDE enzyme and a test compound.
After the enzymatic reaction, 100 μl of a binding solution (1:100 dilution of the binding agent, which contains the nano beads that recognize FAM-AMP, with the binding agent diluent) was added to each reaction and the reaction was performed at room temperature for 60 minutes. Fluorescence intensity was measured at an excitation of 485 nm and an emission of 528 nm using a Tecan Infinite M1000 microplate reader. Assays done by Millipore were conducted similarly with changes noted below:
Hedgehog signaling inhibition and PDE4 inhibition of various compounds disclosed herein was assayed as described herein above.

[17] = SW480, human cancer cells, read-out: CELL KILLING EC50 (μM) Colon SW480
[18] = human cancer cells, read-out: CELL KILLING EC50 (μM) Colon RKO

T1 sequence (Q08499 303-809): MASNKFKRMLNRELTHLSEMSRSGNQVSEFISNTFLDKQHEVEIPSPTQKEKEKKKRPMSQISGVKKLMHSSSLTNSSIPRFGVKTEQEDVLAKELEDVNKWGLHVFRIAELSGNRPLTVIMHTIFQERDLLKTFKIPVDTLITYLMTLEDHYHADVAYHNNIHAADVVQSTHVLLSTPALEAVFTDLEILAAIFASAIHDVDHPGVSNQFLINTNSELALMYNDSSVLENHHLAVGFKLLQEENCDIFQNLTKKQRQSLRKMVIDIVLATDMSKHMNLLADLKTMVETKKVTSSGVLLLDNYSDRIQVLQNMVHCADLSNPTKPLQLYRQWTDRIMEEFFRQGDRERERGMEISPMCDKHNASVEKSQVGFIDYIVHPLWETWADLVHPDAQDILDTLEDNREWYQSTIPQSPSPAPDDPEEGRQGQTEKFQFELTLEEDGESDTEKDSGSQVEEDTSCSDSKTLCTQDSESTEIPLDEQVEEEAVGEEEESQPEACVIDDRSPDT

| SMILES | IC50 ([1]; Table 9A) | IC50 ([2]; Table 9A) | EC50 ([3]; Table 9A) | EC50 [4] | CELL KILLING EC50 (μM) Lung H82 [5] | EC50 [6] | EC50 [7] | EC50 [8, 17] | EC50 [9] | EC50 [10, 18] | EC50 [11] | EC50 [12] | EC50 [13] | EC50 [14] | EC50 [15] | CELL KILLING EC50 (μM) Breast MCF7 [6] | also measured |
| --- | --- | --- | --- | --- | --- | --- | --- | --- | --- | --- | --- | --- | --- | --- | --- | --- | --- |
| C=C(C)Cn1c(SCC(=O)N2Cc3ccccc3C2)nc2sc3c(c2c1=O)CCCC3 [Formula 1KMT] | 46 µM | 30 µM | > 20 µM | 74 µM | UnCh | 1.08 µM | 58.2 µM | 4.89 µM | 89.2 µM | 75.6 µM | 49.7 µM | 68.3 µM | 32.4 µM | 51.1 µM | 61.7 µM | – | – |
| C=CCn1c(SCC(=O)N2CCN(C)CC2)nc2sc3c(c2c1=O)CCCC3 [Formula 1KN7] | 1.7 µM | 1.8 µM | 5 to 10 µM | 45.7 µM | UnCh | – | 58.6 µM | 0.0574 µM | 21.3 µM | 8.39 µM | 27.5 µM | 10.3 µM | 91.4 µM | 28.4 µM | 25.8 µM | UnCh | IC50 [3]: 10 µM; IC50 [16]: 2.1 µM and 2.08 µM; EC50 ([8]; 72 h, read-out: EC50 (50% reduction of viable cell count at 72 hours), SW480, Human Colorectal Adenocarcinoma): 0.057 µM; EC50 ([10]; 72 h, read-out: EC50 (50% reduction of viable cell count at 72 hours), Human Colon Carcinoma): 8.39 µM |
| C=C(C)Cn1c(SCC(=O)c2ccc(-c3ccccc3)cc2)nc2sc3c(c2c1=O)CCCC3 [Formula 1KXQ] | > 100 µM | > 100 µM | > 20 µM | 41.1 µM | UnCh | – | 46.8 µM | 44 µM | 12 µM | – | 12.2 µM | > 100 µM | 0.029 µM | 80.9 µM | 28.7 µM | UnCh | CELL KILLING EC50 (μM) Colon RKO ([10]; human cancer cells): UnCh |
| C=CCn1c(SCC(=O)c2ccccc2)nc2scc(-c3ccccc3)c2c1=O [HI696] | – | – | – | > 100 µM | – | > 100 µM | 2.95 µM | 2.6 µM | 3.2 µM | > 100 µM | 3.75 µM | 1.2 µM | > 100 µM | 64.9 µM | 0.0066 µM | – | IC50 ([1]; Table 9B): 7.4 µM; IC50 ([2]; Table 9B): 14 µM; EC50 ([3]; Table 9B): < 1 µM; EC50 ([5]; NCI-H82): > 100 µM |

From patent publication US10329304B2, “Compounds and methods for inhibition of hedgehog signaling and phosphodiesterase” (Vanderbilt University, priority 2014, dated 2019)
